Measured values published in patent US10064865B2, “Composition comprising phosphodiesterase type 5 inhibitor for inhibiting apoptosis of nerve cells” (ARIBIO INC., priority 2012, dated 2018).

Legend:
Format in all cases: in vivo, Sprague-Dawley (SD) rats
caspase-3 = assay: Example 1 immunohistochemistry: caspase-3-immunoreactive cells; details: for Numbers of neurons: Caspase-3+: 29 days after neuron apoptosis
Experimental: (§1) The induction of neuron apoptosis was carried out by damaging the right hemisphere of the brain of animals. Specifically, animals were anesthetized with 2 or 3% isoflurane in the mixture of 70% N2O and 28.5% O2, and were maintained with 1 to 1.5% isoflurane in the mixture of 70% N2O and 28.5% O2. After that the temporalis muscle was bisected and reflected through an incision made midway between the eye and the eardrum canal. The proximal MCA was exposed through a subtemporal craniectomy by microdental drills without removing the zygomatic arch and without transecting the facial nerve. […] Mortality was less than 5%. For sham control, all procedures were performed in the same way, with the exception of the occlusion of the MCA.
(§2) After deparraffinized of cerebral histological paraffin sections, citrate buffer antigen (epitope) retrieval pretreatment were conducted as previously (Shi S R et al., J Histochem Cytochem. 41:1599-604(1993)). Briefly, pre-heat water bath with staining dish containing 10 mM citrate buffers (pH 6.0) until temperature reaches 95-100° C. Immerse slides in the staining dish and place the lid loosely on the staining dish. Incubate for 20 minutes and turn off the water bath. Place the staining dish at room temperature and allow the slides to cool for 20 minutes. After epitope retrivals, sections were immunostained as following steps:
(§3) Incubate sections with methanol and 0.3% H2O2 for 30 minutes for blocking endogenous peroxidase activity at room temperature and rinse in 0.01M phosphate buffered saline (PBS; pH 7.2) for 3 times;
(§4) Incubate sections with normal horse serum blocking solution (Vector Lab. Inc., Burlingame, USA. Dilution 1:100) for 1 hour to block non-specific binding of immunoglobulin at room temperature in humidity chamber, and rinse in 0.01M PBS for 3 times;
(§5) Incubate sections with primary antisera for overnight at 4° C. in humidity chamber and rinse in 0.01M PBS for 3 times;
(§6) Incubate sections with biotinylated universal secondary antibody (Vector Lab., Dilution 1:50) for 1 hour at room temperature in humidity chamber and rinse in 0.01M PBS for 3 times;
(§7) Incubate sections with ABC reagents (Vectastain Elite ABC Kit, Vector Lab., Dilution 1:50) for 1 hour at room temperature in humidity chamber and rinse in 0.01M PBS for 3 times;
(§8) Incubate sections in Peroxidae substrate kit (Vector Lab.) for 5 min at room temperature and rinse in 0.01M PBS for 3 times;
(§9) Counterstain with Mayer's hematoxylin solution and rinse in running tap water for 30 minutes;
(§10) Dehydrate through 95% ethanol for 2 minutes, 100% ethanol for 3 times and Clear in xylene for two times; and
(§11) Coverslip with permanent mounting medium and observed under light microscope (Nikkon, Japan).
(§12) Histomorphometry: The nerve cells occupied by over 10% of immunoreactivities, the density, of each antiserum, caspase-3 and PARP were regarded as immunoreactive. In the present study, the numbers of each caspase-3 and PARP-immunoreactive cells among mm^2 of ipsilateral peri-infarct/defect cerebral cortex were measured using a computer-assisted image analysis program, respectively.
(§13) All data were expressed as mean±standard deviation (S.D.) of ten rats. Multiple comparison tests for different dose groups were conducted. Variance homogeneity was examined using the Levene test (Levene A, Clin Otalary, 1981; 6:145-51). […] Statistical analyses were conducted using SPSS (Release 14K, SPSS Inc., USA; Ludbrook, Clin Exp Pharmacol Physiol, 1997; 24:294-6). In addition, the percent changes between neuron apoptosis control and mirodenafil treated rats were calculated to help the understanding of the efficacy of test material as follow equation 3. Percentage changes as compared with neuron apoptosis control (%)=[((Data of mirodenafil treated groups−Data of neuron apoptosis control)/Data of neuron apoptosis control)×100] [EQUATION 3]

[1] = tested on: neuron apoptosis-operated rats; assay: Example 2 water tank task (water maze)
Experimental: Cognitive testing was conducted using the water tank task (J Neurosci Methods. 11:47-60(1984)). On the days 14 and 28 after neuron apoptosis, the rats were given a series of 3 trials, 10 min apart in a large dark-colored tank (150 cm in diameters×50 cm in height) filled with clear water at a temperature of 22.0±1.0° C. A 15×30 cm submerged platform (2 mm below water surface) was placed in the northwest quadrant of the pool. The release point was always the southern end of the pool. The rats were lowered into the pool facing the wall and were released. The swim paths of the rats for each trials were recorded with a computer interfaced camera tracking system (Smart junior, PanLab, Spain), and the distances (m) and times (sec) taken to reach the escape platform were measured.
All data were expressed as mean±standard deviation (S.D.) of ten rats. Multiple comparison tests for different dose groups were conducted. Variance homogeneity was examined using the Levene test (Levene A, Clin Otalary, 1981; 6:145-51). […] Statistical analyses were conducted using SPSS for Windows (Release 14K, SPSS Inc., USA; Ludbrook, Clin Exp Pharmacol Physiol, 1997; 24:294-6). In addition, the percent changes as compared with neuron apoptosis control and mirodenafil treated rats were calculated to help the understanding of the efficacy of test substances as follow Equation 6 and 7. Percentage Changes as Compared with Sham Control (%)=[((Data of neuron apoptosis control−Data of sham control rat)/Data of sham control rats)×100] [EQUATION 6] Percentage Changes as Compared with neuron apoptosis Control (%)=[((Data of test material treated rats−Data of neuron apoptosis control rats)/Data of neuron apoptosis control rats)×100] [EQUATION 7]

PARP = assay: Example 1 immunohistochemistry: PARP-immunoreactive cells; details: for Numbers of neurons: PARP+: 29 days after neuron apoptosis
Experimental: as §1, §2, §3, §4, §5, §6, §7, §8, §9, §10, §11, §12, §13

[2] = 1 mg/kg from 24 hrs after surgery
[3] = 1 mg/kg from 72 hrs after surgery
[4] = 1 mg/kg from 168 hrs after surgery

CCCOc1ccc(S(=O)(=O)N2CCN(CCO)CC2)cc1-c1nc2c(CCC)cn(CC)c2c(=O)[nH]1 [Mirodenafil, mirodenafil] was tested, and the “numbers of caspase-3-immunoreactive neurons, change as compared with neuron apoptosis control” value (caspase-3; 0.5 mg/kg) was −33.43%, the “Numbers of neurons: Caspase-3+” value (caspase-3; 0.5 mg/kg s.c. once a day) was 43.80 ± 10.37^ab cells/mm^2 of cerebral cortex and the “numbers of caspase-3-immunoreactive neurons, change as compared with neuron apoptosis control” value (caspase-3; 1 mg/kg) was −76.44%. For the same compound, the “Numbers of neurons: Caspase-3+” value (caspase-3; 1 mg/kg s.c. once a day) was 15.50 ± 3.57^ab cells/mm^2 of cerebral cortex, the “numbers of caspase-3-immunoreactive neurons, change as compared with neuron apoptosis control” value (caspase-3; 2 mg/kg) was −77.96% and the “Numbers of neurons: Caspase-3+” value (caspase-3; 2 mg/kg s.c. once a day) was 14.50 ± 3.69^ab cells/mm^2 of cerebral cortex. The “mean distances to reach the escape platform at 28 days, change as compared with neuron apoptosis control” value [1, 2] was −26.45%, the “mean time to reach the escape platform at 28 days, change as compared with neuron apoptosis control” value [1, 2] was −24.49% and the “mean distances to reach the escape platform at 28 days, change as compared with neuron apoptosis control” value [1, 3] was −16.05%. The “mean time to reach the escape platform at 28 days, change as compared with neuron apoptosis control” value [1, 3] was −17.33%, the “mean distances to reach the escape platform at 28 days, change as compared with neuron apoptosis control” value [1, 4] was −6.42% and the “mean time to reach the escape platform at 28 days, change as compared with neuron apoptosis control” value [1, 4] was −5.36%. For the same compound, the “numbers of PARP-immunoreactive neurons, change as compared with neuron apoptosis control” value (PARP; 0.5 mg/kg) was −37.58%, the “Numbers of neurons: PARP+” value (PARP; 0.5 mg/kg s.c. once a day) was 47.50 ± 9.44^ab cells/mm^2 of cerebral cortex and the “numbers of PARP-immunoreactive neurons, change as compared with neuron apoptosis control” value (PARP; 1 mg/kg) was −76.74%. For the same compound, the “Numbers of neurons: PARP+” value (PARP; 1 mg/kg s.c. once a day) was 17.70 ± 2.00^ab cells/mm^2 of cerebral cortex, the “numbers of PARP-immunoreactive neurons, change as compared with neuron apoptosis control” value (PARP; 2 mg/kg) was −78.32% and the “Numbers of neurons: PARP+” value (PARP; 2 mg/kg s.c. once a day) was 16.50 ± 3.81^ab cells/mm^2 of cerebral cortex.
